Source: PMC5933457, “Probing biological activity through structural modelling of ligand-receptor interactions of 2,4-disubstituted thiazole retinoids” (Bioorganic & Medicinal Chemistry, 2018)
Like-named read-outs stand apart in the source and are kept apart here.

Legend:
TERA2.cl.SP12 stem cells = assay: Real-time PCR for neuronal markers NeuroD1 and PAX6; format: cell-based, human; conditions: 10 μM, Fig. 7B
Description: Second, NeuroD1 and PAX6 are retinoid-induced transcription factors involved in regulating neuronal differentiation,[49], [50] and are expressed in neurons derived from TERA2.cl.SP12 stem cells.
(§1) Real time PCR was carried out immediately after treatment on both cell line lysates with 0.25% trypsin–EDTA. TERA-2.cl.SP12 cells were seeded at a density of 1 × 10^6 cells per 25 cm^2 flask, 12–24 h before treatment. […] SH-SY5Y cells were seeded at a density of 1 × 10^6 cells per 25 cm^2 flask, 12–24 h before treatment. […] Commercial RNA extraction kits (Qiagen) and reverse transcription (Applied Biosystems) kits were purchased and procedures used according to the manufacturer instructions. Real time PCR was performed using the TaqMan® Universal PCR Master Mix (Life technologies) and TaqMan® gene expression system (Applied Biosystems) based on probe sets to the specific genes to be analysed. Genecodes used are as follows: RARβ (Hs00233407_m1), CYP26-A1 (Hs00175627_m1), RARα (Hs00940448_g1), RARγ (Hs01559234_m1), PAX-6 (Hs01088112_m1), NeuroD1 (Hs01922995_s1). GADPH (Hs02758991_g1) and ACTB (Hs99999903_m1) were used as internal control genes for TERA-2.cl.SP12 and SH-SY5Y, respectively.

[1] = molecular target: T1, RARα ligand-binding domain (GST-RAR-α-LBD) (Homo sapiens, UniProt P10276); assay: LanthaScreen TR-FRET RARα co-activator (receptor binding) assay; format: biochemical; conditions: for binding-curve upper asymptote (coactivator recruitment), RARα: in words, Fig. 6A; for EC50: read-out: EC50 (95% confidence range) RARα
T1 construct: purchased Invitrogen
T1 sequence (P10276 183-417 limits assumed): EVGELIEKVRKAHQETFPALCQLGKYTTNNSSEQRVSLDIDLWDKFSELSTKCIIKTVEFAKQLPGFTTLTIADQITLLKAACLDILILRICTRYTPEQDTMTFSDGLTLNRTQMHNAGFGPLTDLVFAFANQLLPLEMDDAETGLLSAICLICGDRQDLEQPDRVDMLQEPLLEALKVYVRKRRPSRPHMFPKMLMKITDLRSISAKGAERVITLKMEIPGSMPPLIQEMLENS
Description: (§2) These predictions were tested through a receptor-binding assay for each RAR isotype (Fig. 6), where the assay signal is dependent on two parameters: the binding affinity of ligand to the RAR LBD, and the affinity of the coactivator for the ligand-LBD complex. For this assay, binding curves and variation in level of the upper asymptote can reflect differences in co-activator affinity for the ligand-LBD complex; variation in affinity of ligand for LBD shifts the midpoint (EC50) of the binding curve, whereas changes in the level of the upper asymptote may result from changes in coactivator affinity for the ligand-LBD complex alone, or in combination with changes in affinity for ligand with LBD.[23]
(§3) The binding interaction of each retinoid with RARα, β and γ were determined in vitro by time-resolved fluorescence resonance energy transfer (TR-FRET) using the LanthaScreen TR-FRET RARα, RARβ, and RARγ co-activator assays according to the manufacturer’s (Invitrogen™) instructions.[23] This uses a terbium-labeled anti-GST antibody, a fluorescein-labeled co activator peptide, and RARα/β/γ ligand-binding domains (LBD) that are tagged with glutathione-S-transferase (GST) in a homogenous assay format. All experiments were performed in black, 384-well low-volume plates in the dark at RT with a 4 h incubation time. The final assay volume was 20 μL and all dilutions were carried out using TR-FRET assay buffer, with a final DMSO concentration of 1%. A mixture of either 3.5 nM GST-RAR-α-LBD or 2.5 nM GST-RAR-β-LBD or 3 nM GST-RAR-γ-LBD with 62.5 nM Tb-anti GST antibody and 30 μM fluorescein-labeled peptide and retinoid or DMSO control was added to each of the wells. Each ligand assay was performed in duplicate and measured using a PHERAstar FS Microplate Reader (BMG Labtech, Ortenberg, Germany) with instrument settings as described in the manufacturer’s instructions for LanthaScreen assays. The TR-FRET signal was expressed as the ratio of the signals at 520 nm and 490 nm. The data were fitted to a three-parameter ligand-binding curve using SigmaPlot (version 12.5, Systat Software Inc., San Jose CA) and normalized to the lower asymptote of each binding curve. […] Since the assay involves interactions between ligand and LBD, and ligand-dependent interactions between the LBD and fluorescein-labeled co activator, the binding assay data were interpreted by simulating these coupled chemical reactions using the biochemical simulator COPASI version 4.3.[23], [54]
(§4) The readout of the Lanthascreen TR-FRET binding assay is based on a Forster resonance energy transfer (FRET) signal generated from the interaction between a terbium-labelled anti-glutathione-S-transferase (GST) antibody and a fluorescein-labelled coactivator peptide. The RAR ligand-binding domain (LBD) is a GST fusion protein and interaction between the LBD and the fluorescein-labelled coactivator peptide is driven by the binding of ligand to the LBD, and detected by the FRET signal from the terbium/fluorescein interaction when the terbium-labelled anti-GST binds the LBD fusion protein. The output of the assay thus relies on two binding interactions: ligand with LBD, and ligand-bound LBD with the coactivator peptide. As both interactions may be affected by the fit of ligand to the binding pocket of the LBD, we used the biochemical pathway simulator COPASI^1 to build a simple model of how the FRET signal output in the assay will vary according to differential changes in the kinetics of the two binding interactions. Reactions were modelled deterministically using mass-action kinetics described by ordinary differential equations (ODE) within COPASI.^1 This model enables us to assess the effect of different rate constants and varying ligand concentration on the formation of the final ternary complex that is the read-out from the Lanthascreen TR-FRET assay.

[2] = test system: SH-SY5Y human neuroblastoma cells; assay: Retinoid-induced gene expression (RARα, RARβ, RARγ, CYP26A1) by real-time PCR; format: cell-based
Description: As an additional assay of biological activity, short-term changes in expression of four genes in SH-SY5Y cells was employed; a neuroblastoma-derived lineage that undergoes neuronal differentiation in response to retinoid treatment. The four genes assayed, RARα, RARβ, RARγ and CYP26A, have RAREs associated with their promoters and may be directly regulated by retinoids.[51], [52]
as §1

TERA2.cl.SP12 cells = assay: Immunocytochemistry for A2B5, TUJ-1 and cytokeratin 8; format: cell-based, human
Description: Third, we carried out assessment of protein expression using immunofluorescent techniques on cultures of TERA2.cl.SP12 cells treated with retinoids.
TERA2.cl.SP12 cells were seeded at 5000 cells per well on poly-D-lysine (25 μg/ml) coated cover slips in 6-well plates. Cells were treated with each retinoid at a concentration of 10 μM for 7, 14 and 21 days (the media was changed every 3–4 days). Cells were also treated with 1% DMSO for the same time periods as a […] control. At the end of the treatment period, cells were fixed (4% para-formaldehyde in PBS for 30 min at room temperature (RT) and rinsed with PBS. One set of experiments was used for the cell surface marker A2B5 (diluted 1:100, R&D systems), and the other set was prepared for intracellular staining using 1% Triton-X-100 (Sigma Aldrich) in PBS as a permeabilizing agent for 10 min at RT. Non-specific labeling was blocked by incubation with a solution of 1% goat serum (Sigma Aldrich) containing 0.2% Tween-20 (Sigma Aldrich) in PBS for one hour at RT. The primary antibodies β-III tubulin antibody (TUJ-1) (1:200, Affymetrix eBioscience) and CK-8 antibody (1:500, Affymetrix eBioscience) were diluted in blocking solution and incubated with the cells for 1 h at RT. After washing three times for 15 min with PBS, cells were incubated for 1 h in the dark with anti-mouse FITC-conjugated secondary antibody IgM (1:128, Sigma Aldrich) for A2B5 staining, and anti-mouse Alexafluor 488 IgG (1:600, Invitrogen) for TUJ-1 and CK-8 staining. Hoechst 33,342 nuclear staining dye (1:1000, Molecular Probes) was dissolved in blocking solution after the secondary antibody staining step for nuclear staining.
Immunocytofluorescent images of fixed cells were visualized using a Leica SP5 confocal microscope. Scale bars are shown at 25 μm.

[3] = test system: TERA2.cl.SP12 embryonal carcinoma stem cells; assay: Flow cytometry of cell-surface differentiation markers SSEA-3, TRA-1–60, A2B5; format: cell-based, human; conditions: 10 μM retinoid, 7 days, compared to ATRA and control cultures, Fig. 7A
Source text: First, we examined neuronal differentiation in pluripotent TERA2.cl.SP12 human embryonal carcinoma stem cells in response to retinoid treatment. TERA2.cl.SP12 cells have been used in previous studies, [29] to test the ability of synthetic retinoids to induce differentiation along a neuronal or an alternative epithelial pathway at long in vitro timescales of up to three weeks. […] Since the parent carboxylic acid (GZ24) had little activity, the response to GZ22 was a real effect of the ester rather than a result of hydrolysis of the parent ester to the carboxylic acid.
The expression of specific cell surface protein markers (SSEA-3, TRA-1–60, A2B5) on TERA2.cl.SP12 was analyzed using flow cytometry as described previously.[53] Briefly, TERA2.cl.SP12 cells, 2 × 10^5 per 25 cm^2 flask, were seeded 12–24 h before treatment with 10 μM retinoid for 7 days. The primary antibodies used were SSEA-3 (diluted 1:10, University of Iowa Hybridoma Bank), TRA-1–60 (diluted 1:50, Abcam) and neural cell marker A2B5 (diluted 1:40, R&D Systems). Labeled cells were analyzed in a Guave EasyCyte Plus System (Millipore) flow cytometer and thresholds determining the numbers of positively expressing cells were set against the negative control antibody, P3X.

[4] = molecular target: T2, RARβ ligand-binding domain (GST-RAR-β-LBD) (Homo sapiens, UniProt P10826); assay: LanthaScreen TR-FRET RARβ co-activator (receptor binding) assay; format: biochemical; conditions: for EC50: estimated EC50, TR-FRET co-activator assay, 4 h incubation, read-out: EC50 (95% confidence range) RARβ; for binding-curve upper asymptote (coactivator recruitment), RARβ: Fig. 6B
T2 construct: purchased Invitrogen
T2 sequence (P10826 183-417 limits assumed): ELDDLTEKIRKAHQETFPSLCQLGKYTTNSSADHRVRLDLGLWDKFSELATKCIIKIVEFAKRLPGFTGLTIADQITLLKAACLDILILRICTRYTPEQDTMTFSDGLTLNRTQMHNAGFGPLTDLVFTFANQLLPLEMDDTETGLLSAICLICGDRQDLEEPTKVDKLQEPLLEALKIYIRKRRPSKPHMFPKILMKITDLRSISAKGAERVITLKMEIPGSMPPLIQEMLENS
Description: as §2, §3, §4

[5] = molecular target: T3, RARγ ligand-binding domain (GST-RAR-γ-LBD) (Homo sapiens, UniProt P13631); assay: LanthaScreen TR-FRET RARγ co-activator (receptor binding) assay; format: biochemical; conditions: for EC50: estimated EC50, TR-FRET co-activator assay, 4 h incubation, read-out: EC50 (95% confidence range) RARγ; for binding-curve upper asymptote (coactivator recruitment), RARγ: in words, Fig. 6C
T3 construct: purchased Invitrogen
T3 sequence (P13631 185-419 limits assumed): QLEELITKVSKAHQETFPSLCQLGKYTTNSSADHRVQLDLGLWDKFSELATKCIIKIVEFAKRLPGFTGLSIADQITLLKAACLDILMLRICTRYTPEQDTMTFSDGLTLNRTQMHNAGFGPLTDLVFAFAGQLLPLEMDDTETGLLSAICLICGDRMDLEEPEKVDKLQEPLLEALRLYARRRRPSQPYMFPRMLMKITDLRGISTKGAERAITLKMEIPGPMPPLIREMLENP
Description: as §2, §3, §4

SMILES | NeuroD1 mRNA expression, rank order (TERA2.cl.SP12 stem cells; after 5 days) | NeuroD1 mRNA expression, rank order (TERA2.cl.SP12 stem cells; after 7 days) | induction of PAX6 expression, rank order (TERA2.cl.SP12 stem cells; up to 7 days) | binding-curve upper asymptote (coactivator recruitment), RARα [1] | induction of RARα and RARγ expression ([2]; 10 μM retinoid, over a 12 h period, Fig. 8A) | induction of RARβ expression, rank order ([2]; dose-response 1 nM to 1 μM, 8 h treatment, all doses, Fig. 8B) | induction of CYP26A1 expression, rank order ([2]; dose-response 1 nM to 1 μM, 8 h treatment, doses <1 μM, Fig. 8B) | expression of epithelial phenotype marker cytokeratin 8 (TERA2.cl.SP12 cells; 10 μM, 1, 2 and 3 weeks, Fig. 7D) | expression of neuronal differentiation marker A2B5 (immunofluorescence) (TERA2.cl.SP12 cells; 10 μM, after 7 days, Fig. 7C) | neuronal differentiation by TUJ-1 staining (TERA2.cl.SP12 cells; 10 μM, up to 3 weeks, Fig. 7C) | EC50 [1] | proportion of cells expressing differentiation markers SSEA-3, TRA-1–60, A2B5 [3] | EC50 [4] | binding-curve upper asymptote (coactivator recruitment), RARβ ([4]; in words) | RAR-type selectivity from binding assay ([4]; in words, from EC50 values of Table 1) | EC50 [5] | binding-curve upper asymptote (coactivator recruitment), RARγ [5] | EC50 ([1]; estimated EC50, TR-FRET co-activator assay, 4 h incubation)
CC1=C(/C=C/C(C)=C/C=C/C(C)=C/C(=O)O)C(C)(C)CCC1 [ATRA, all-trans-retinoic acid, reference compound] | GZ25 > GZ18 > ATRA | ATRA > GZ25 | GZ25 ≫ ATRA > GZ18 | high curve asymptotes | greatest activity | GZ25 ≫ ATRA > GZ18 | GZ25 > GZ18 > ATRA | not detectable | induced | most effective | – | – | – | – | – | – | – | –
CCOC(=O)c1ccc(-c2nc(-c3ccc4c(c3)C(C)(C)CCC4(C)C)c(C)s2)cc1 [GZ23] | – | – | – | lower asymptotes | – | – | – | – | – | – | 88.9 nM | very little activity | 12.1 nM | high asymptotes | surprising selectivity for RARβ | 847 nM | intermediate | –
Cc1sc(-c2ccc(C(=O)O)cc2)nc1-c1ccccc1 [GZ24] | – | – | – | lower asymptotes | – | – | – | – | – | – | – | very little activity | 77.8 nM | very low asymptotes | – | 109 nM | intermediate | 77.5 nM
